In ChEMBL document CHEMBL5550115, “Histone deacetylase (HDAC) inhibitor specificity determinants are preserved in a class of dual HDAC/non-covalent proteasome inhibitors” (Bioorg Med Chem, 2024):

What was measured:
[1] = target: 20S proteasome; test: Inhibition of human 20S proteasome chymotrypsin-like activity using Suc-LLVY-Glo as a […] substrate measured after 10 mins by luminescence based analysis; assay type: protein-complex assay
[2] = tested on: RPMI-8226; test: Antiproliferative activity against human RPMI-8226 cells assessed as inhibition of cell growth measured after 72 hrs by MTS method; assay type: functional, cell-based; settings: RPMI-8226, 72 h
[3] = target: T1, Protein deacetylase HDAC6 (Homo sapiens) (UniProt Q9UBN7); test: Inhibition of HDAC6 (unknown origin) at 1 uM incubated for 1 hr by fluorescence based microplate reader analysis relative to control
T1 sequence (whole entry): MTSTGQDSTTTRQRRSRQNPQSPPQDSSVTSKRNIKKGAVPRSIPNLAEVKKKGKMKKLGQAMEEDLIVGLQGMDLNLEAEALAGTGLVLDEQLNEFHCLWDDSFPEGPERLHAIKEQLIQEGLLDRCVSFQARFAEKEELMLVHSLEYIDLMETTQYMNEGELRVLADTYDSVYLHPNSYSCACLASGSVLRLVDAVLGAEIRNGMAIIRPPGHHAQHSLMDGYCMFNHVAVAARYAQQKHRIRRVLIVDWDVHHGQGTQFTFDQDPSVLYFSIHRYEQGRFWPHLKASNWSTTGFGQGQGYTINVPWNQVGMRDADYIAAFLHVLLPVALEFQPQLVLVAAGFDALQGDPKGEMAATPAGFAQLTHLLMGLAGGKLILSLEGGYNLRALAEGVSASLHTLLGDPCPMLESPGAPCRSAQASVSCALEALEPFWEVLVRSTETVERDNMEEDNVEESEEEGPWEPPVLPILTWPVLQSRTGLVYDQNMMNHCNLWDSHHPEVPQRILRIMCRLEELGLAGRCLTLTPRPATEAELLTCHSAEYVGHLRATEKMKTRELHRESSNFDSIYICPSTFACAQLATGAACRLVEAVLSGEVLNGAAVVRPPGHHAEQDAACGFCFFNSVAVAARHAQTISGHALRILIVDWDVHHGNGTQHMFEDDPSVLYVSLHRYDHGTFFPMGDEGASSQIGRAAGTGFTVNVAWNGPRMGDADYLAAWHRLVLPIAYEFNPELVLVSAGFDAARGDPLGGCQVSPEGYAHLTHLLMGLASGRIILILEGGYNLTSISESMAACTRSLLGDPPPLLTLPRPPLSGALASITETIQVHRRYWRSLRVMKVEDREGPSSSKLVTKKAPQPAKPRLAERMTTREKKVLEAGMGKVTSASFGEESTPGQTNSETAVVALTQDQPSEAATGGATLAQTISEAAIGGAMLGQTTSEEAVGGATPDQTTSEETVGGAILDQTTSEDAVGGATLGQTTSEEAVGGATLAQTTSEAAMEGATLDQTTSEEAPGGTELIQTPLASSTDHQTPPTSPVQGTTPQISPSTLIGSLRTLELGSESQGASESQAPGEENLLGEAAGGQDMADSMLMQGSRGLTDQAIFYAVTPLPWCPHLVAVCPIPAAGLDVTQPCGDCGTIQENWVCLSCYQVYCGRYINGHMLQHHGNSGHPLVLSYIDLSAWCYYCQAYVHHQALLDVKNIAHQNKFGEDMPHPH

[4] = target: Histone deacetylase 1 (Homo sapiens) (UniProt Q13547); test: Inhibition of HDAC1 (unknown origin) at 1 uM incubated for 1 hr by fluorescence based microplate reader analysis relative to control
Histone deacetylase 1 (Homo sapiens), sequence (Q13547 whole entry): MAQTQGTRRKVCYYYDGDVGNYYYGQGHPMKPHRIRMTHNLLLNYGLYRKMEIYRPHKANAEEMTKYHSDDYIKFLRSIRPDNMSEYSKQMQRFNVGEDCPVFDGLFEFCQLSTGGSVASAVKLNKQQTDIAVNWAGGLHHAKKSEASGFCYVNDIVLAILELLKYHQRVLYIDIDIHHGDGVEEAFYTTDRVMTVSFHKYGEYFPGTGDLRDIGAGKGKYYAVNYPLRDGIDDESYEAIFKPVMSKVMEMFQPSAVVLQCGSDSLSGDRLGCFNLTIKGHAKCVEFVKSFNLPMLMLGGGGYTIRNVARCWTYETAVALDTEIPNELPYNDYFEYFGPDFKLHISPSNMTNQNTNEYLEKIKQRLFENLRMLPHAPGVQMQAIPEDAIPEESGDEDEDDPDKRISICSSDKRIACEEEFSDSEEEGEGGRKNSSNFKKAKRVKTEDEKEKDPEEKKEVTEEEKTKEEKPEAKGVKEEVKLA

[5] = tested on: A-375; test: Antiproliferative activity against human A-375 cells assessed as inhibition of cell growth measured after 48 hrs by cell titer-blue cell viability assay; assay type: functional, cell-based; settings: A-375, 48 h
[6] = target: T2, Proteasome Macropain subunit MB1 (Homo sapiens, UniProt P28074); test: Inhibition of human 20S proteosome beta5c subunit using Ac-WLA-AMC as substrate by microplate reader analysis
T2 sequence (P28074 whole entry): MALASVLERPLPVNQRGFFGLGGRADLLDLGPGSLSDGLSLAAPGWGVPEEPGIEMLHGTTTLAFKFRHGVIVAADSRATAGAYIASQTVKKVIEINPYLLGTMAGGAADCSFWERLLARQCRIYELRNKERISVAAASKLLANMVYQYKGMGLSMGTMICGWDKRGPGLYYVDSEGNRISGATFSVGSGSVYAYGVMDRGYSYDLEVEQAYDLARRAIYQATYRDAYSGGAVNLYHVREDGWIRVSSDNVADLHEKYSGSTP

Row | Compound | IC50 [1] | IC50 [2] | inhibition [3] | inhibition [4] | IC50 [5] | IC50 [6]
1 | C[C@H](NC(=O)[C@H](CC(=O)NCC(C)(C)C)NC(=O)CCCCCCC(=O)NO)C(=O)NCc1ccc(F)cc1F | > 30 µM | > 50 µM | – | – | – | –
2 | C[C@H](NC(=O)[C@H](CC(=O)NCC(C)(C)C)NC(=O)c1ccc(C(=O)Nc2ccccc2N)cc1)C(=O)NCc1ccc(F)cc1F | – | > 50 µM | 13% | 65% | > 50 µM | –
3 | C[C@H](NC(=O)[C@H](CC(=O)NCC(C)(C)C)NC(=O)c1c[nH]c2ccccc12)C(=O)NCc1ccc(F)cc1F | 0.729 µM | 11.5 µM | – | – | 8.87 µM | 0.0024 µM
4 | C[C@H](NC(=O)[C@H](CC(=O)NCC(C)(C)C)NC(=O)c1ccc(C(=O)NO)cc1)C(=O)NCc1ccc(F)cc1F | > 30 µM | > 50 µM | – | – | – | –
5 | C[C@H](NC(=O)[C@H](CC(=O)NCC(C)(C)C)NC(=O)c1ccc(/C=C/C(=O)NO)cc1)C(=O)NCc1ccc(F)cc1F | 0.199 µM | 7.03 µM | – | – | 1.83 µM | –
6 | C[C@H](NC(=O)[C@H](CC(=O)NCC(C)(C)C)NC(=O)CCC(=O)Nc1ccc(C(=O)NO)cc1)C(=O)NCc1ccc(F)cc1F | > 30 µM | > 50 µM | – | – | > 50 µM | –
